{"source": "patent US8618080B2", "about": "“Immunomodulatory compounds and treatment of diseases related to an overproduction of inflammatory cytokines” (OM Pharma, priority 2006, dated 2013)", "key": {"murine DC cells": {"tested_on": "murine DC cells", "experiment": "LPS-induced IL-12, TNF-α and IL-10 production by bone marrow derived dendritic cells", "format": "cell-based, murine (C57BL/7)", "conditions": "murine BM-derived DC; compound 0.01-100 μg/ml 1 h 30 before LPS 1 μg/ml; 20 h; ELISA", "description": "Femora and tibiae from two male C57BL/7, 6 week-old (Charles River Laboratories France), were removed, stripped of muscles and tendons, and desinfected with 70% ethanol. Both ends of each bone were cut and the marrow was flushed with HBSS (Gibco BRL) using a syringe with a 26-gauge needle. The resulting cell suspension was centrifuged for 5 min. at 500 g and washed in HBSS. The cells were resuspended at 3×10^5 cells/ml in RPMI-1640 (Gibco BRL) supplemented with 2 mM L-glutamin (Sigma), 100 U/ml penicillin (Sigma), 100 μg/ml streptomycin (Sigma), 50 μM β-mercaptoethanol (Sigma), 10% heat-inactivated FCS (Sigma) and 15 ng/ml murine rGM-CSF (R&D).\nTo generate bone marrow (BM) derived dendritic cells (DC), BM leukocytes were cultured in 100-mm bacteriological petri dishes (Falcon 1029) for 8 days at 37° C. in 5% CO2. On day 0, 10 ml of cell suspension were seeded per dish. On day 3, another 10 ml of freshly prepared medium were added to each plate and on day 6, 9 ml of top medium were carefully removed from each plate and replaced by 10 ml of fresh medium.\nNon-adherent cells of the 8-day old BM cell cultures were collected, centrifuged for 5 min. at 500 g, and resuspended at 1.25×10^6 cells/ml in supplemented RPMI containing 10 ng/ml GM-CSF. The cells were then seeded in 24-well tissue culture plates ([…]) and incubated for 1 h 30 at 37° C. in 5% CO2 in the absence or presence of OM-294-DP or OM-197-MP-AC (0.01-100 μg/ml/200 μl/well). LPS (E.coli O26:B6, Sigma), was then added at 1 μg/ml, and the plates were further incubated. After 20 h incubation, the supernatants were collected for analysis of cytokines. IL-12p70, IL-10, and TNF-α concentrations in DC culture supernatants were measured by ELISA using OptEIA matched Ab pairs from BD Pharmingen. Supersignal ELISA Pico chemiluminescent peroxidase substrate (BD Pharmingen) was used for the detection by luminometry (Wallac 1420 multilabel counter Victor-2). The assays were performed according to manufacturer's instructions.\nFIG. 1: IL-12 (left panels) and IL-10 (right panels) secretion by murine DC stimulated by LPS (1 μg/ml) alone, or first during 90 minutes with the indicated concentrations (in μg/ml) of OM-197-MP-AC (A) or 294-DP (B), and then by LPS (1 μg/ml) for 20 additional hours. The supernatants were collected from the DC cultures and analyzed by ELISA for the presence of IL-12 and IL-10.\nFIG. 2: TNF-α secretion by murine DC stimulated by LPS (1 μg/ml) alone, or first during 90 minutes with the indicated concentrations (in μg/ml) of 294-DP (294), or of OM-197-MP-AC (197), and then by LPS (1 μg/ml) for 20 additional hours. The supernatants were collected from the DC cultures and analyzed by ELISA for the presence of TNF-α."}, "[1]": {"tested_on": "LACK-sensitized and challenged Balb/c ByJ mice", "experiment": "LACK-induced allergic asthma model, prophylactic i.p. treatment", "format": "in vivo", "conditions": "1 mg/Kg i.p. prophylactic", "description": "Females Balb/c ByJ mice of 6-week old were purchased from the Centre d'Elevage Janvier (CERJ, Le Genest-St-lsle, France). All the mice were sensitised by 2 i.p. injections of 10 μg LACK protein precipitated in 2 mg of Alum (PerBio Science France SAS, Brebières, France) at days 0 and 7.\nAnimals were divided in groups, as follow: • LACK-sensitized and saline-challenged mice (4 mice) • LACK-sensitized and challenged mice (8 mice) • OM-197-MP-AC-treated, LACK-sensitized and challenged mice (8 mice)\nMice of the third group were treated intraperitoneally with 1 mg/Kg (20 μg per mouse) of OM-197-MP-AC. Mice were treated on days: −1, 1, 2, 3, 6, 8, 9, 10 and 11. From day 16 to day 21, mice of groups B and C were exposed to a daily 20-min aerosol challenge of a LACK solution (0.15%) whereas mice of the saline group received a saline solution as control.\nAHR was measured for all the mice one day after the last antigen challenge by whole-body plethysmography (Emka) in response to increasing concentrations (6-25 mg/ml) of inhaled methacholine (acetyl methyl choline, Sigma). AHR is expressed as enhanced pause (Penh, see FIG. 4), a dimensionless parameter perfectly correlated to airway compliance and resistance calculated value, which correlates with measurement of airway resistance, impedance, and intrapleural pressure.\nAll the mice were bled by heart puncture one day after the last aerosol. Total IgE were quantified by ELISA using rat EM-95 anti-IgE mAbs as coating antibody and rat anti-IgE mAbs coupled to biotin as second antibody as described (Julia et al., 2002).\nIndividual mice were bled and a canula was inserted into their trachea. Lungs were washed 3 times with 1 ml of warmed PBS. Cells were washed with PBS, resuspended in 300 μl, and counted using a Burker-Türk chamber. For differential BAL cell counts, cytospin preparations were made and stained with Wright/Giemsa coloration. The respective numbers of neutrophils, eosinophils, and other mononuclear cells were determined by microscopic examination. Only the percentage of eosinophils (FIG. 5) is reported here.\nTo investigate lung cytokine contents of treated and untreated animals, protein extracts were prepared from lungs of LACK-sensitized and PBS-challenged wt mice (group “Control”), LACK-sensitized and challenged wt mice (group Asthma”), OM-197-MP-AC-treated wt mice (group “OM-197”). IL-4, IL-5, IL-13 contents were analyzed by multiplex analysis using FACSArray.\nTreated or untreated LACK-sensitized mice (see above) were next challenged with daily aerosol of LACK for five consecutive days. One day after the last aerosol, AHR was measured by whole-body plethysmography in response to increasing concentrations of aerosolized methacholine.\nTo further investigate the effects of prophylactic OM-197-MP-AC on allergic airway inflammation, proteins were extracted from lungs of both treated and untreated WT mice, and cytokines known to play a important role in asthma (IL-4, IL-5 and IL-13) were quantified by multiplex analysis using CBA array beads and FACSarray. Data were normalized to the total quantity of proteins and given as pg of cytokine per mg of lung proteins."}, "[2]": {"conditions": "lung protein extracts, CBA/FACSArray"}}}
{"smiles": "CCCCCCCCCCCC(=O)O[C@H](CCCCCCCCCCC)CC(=O)N[C@@H](CCOP(=O)(O)O)C(=O)NCCC[C@H](COC(=O)CCCCCN)NC(=O)C[C@H](O)CCCCCCCCCCC", "note": "[OM-197-MP-AC, (3S, 9R)-3-[(R)-3-dodecanoyloxytetradecanoylamino]-4-oxo-5-aza-9-[(R)-3-hydroxytetradecanoylamino]-decan-1, 10-diol 1-dihydrogenophosphate 10-(6-aminohexanoate)]", "values": [{"measurement": "LPS-induced production of IL-10", "setting": "murine DC cells", "result": "increase"}, {"measurement": "LPS-induced production of IL-12", "setting": "murine DC cells", "result": "decrease"}, {"measurement": "LPS-induced production of TNF-α", "setting": "murine DC cells", "result": "decrease"}, {"measurement": "Eosinophils in BAL, less than untreated control mice", "setting": "[1]", "result": 3, "unit": "times less"}, {"measurement": "Total IgE in sera, less than untreated sensitized, challenged mice", "setting": "[1]; ELISA", "result": 2, "unit": "fold less"}, {"measurement": "Amount of KC produced in lungs", "setting": "[1]; lung protein extracts", "result": "reduced by half"}, {"measurement": "Lung IFN-γ, less than untreated mice", "setting": "[1]; lung protein extracts", "result": 2, "unit": "times less"}, {"measurement": "Lung IL-6, less than untreated mice", "setting": "[1]; lung protein extracts", "result": 1.5, "unit": "times less"}, {"measurement": "Lung MCP-1, less than untreated animals", "setting": "[1]; lung protein extracts", "result": 1.8, "unit": "times less"}, {"measurement": "Lung IL-4, less than untreated mice", "setting": "[1]; [2]", "result": 5, "unit": "times less"}, {"measurement": "Lung IL-5, less than untreated mice", "setting": "[1]; [2]", "result": 5, "unit": "times less"}, {"measurement": "Lung IL-13, less than untreated mice", "setting": "[1]; [2]", "result": 3.5, "unit": "times less"}, {"measurement": "Airway hyperresponsiveness (AHR, Penh) to methacholine", "setting": "[1]; whole-body plethysmography one day after last challenge", "result": "did not exhibit AHR"}]}
